What is called pEC50 is −log10 of the EC50, conventionally taken in molar units.

For test [1] the following is noted: in vivo; cited from earlier work.
The test system of another test is SLC-1 gene product. Particulars: cited from earlier work.
The conditions of test [2]: intracerebroventricular injection, rats; cited from earlier work.
The target in test [3] is T1, nGPCR-51 (Homo sapiens, UniProt Q969V1).
T1 construct: expressed in transfected cells
As to the kind of experiment: Aequorin luminescence assay, COS 7 cells co-transfected with nGPCR-51 and mtAequorin. It is filed as cell-based. Particulars: nGPCR-51 expressing COS 7 cells. Here is the method:
Agonist activation of receptors that couple to the Gq subtype of G proteins will lead to the release of intracellular calcium. The photoprotein aequorin emits a characteristic luminescence in the presence of calcium and may be expressed in cells along with the receptor of interest in order to report agonist signalling. Peptide A was tested for the ability to activate nGPCR-51 using an assay for aequorin. Peptide A, a cyclic peptide via a disulfide bond between the Cys residues, has the following amio acid sequence: Asp Phe Asp Met Leu Arg Cys Met Leu Gly Arg Val Tyr Arg Pro Cys Trp Gln Val (SEQ ID NO: 183). Preferably, Peptide A is used in a solution containing 0.17M acetic acid, or the like, and a stabilizer such as a 0.2% BSA:acetonitrile 90:10. […] After the coelenterazine loading incubation, the cells are counted and diluted to 1×10^6 cells/ml in assay buffer. […] The instrument is programmed to dispense 50 μl cell suspension into each well, one well at a time, and immediately read luminescence for 20 seconds. […] Data are analyzed with SlideWrite, using the equation y=a^0*a^1/(x+a^1)+a^2 where a^0 is the maximum response minus the baseline; a^1 is the EC50; and a^2 is the […].

For test [4] the following is noted: injections into the medial preoptic area of the hypothalamus of rats; cited from earlier work.
Test [5] concerns the target T1, nGPCR-51. As to the kind of experiment: NFkB-Luciferase reporter gene assay, nGPCR-51 (Seq51)-transfected N7 (HOS) cells. It is filed as cell-based. As to conditions: 5-hr incubation, 2 separate experiments, read-out: EC50, luciferase expression. The protocol:
nGPCR-51 was transfected in N7 cells, stable HOS (human osteosarcoma) cells expressing NFkB-Luciferase reporter gene Briefly, LipofectAMINE, PLUS reagent, and 4 μg DNA were added to cells in Opti-MEM. After 4 hours, serum-containing medium was added to each plate. Twenty-four hour after transfection the cells were trypsinized and seeded in COSTAR white 96-well plate at a cell density of about 20,000 cells per well. Another 24 hours later the culture medium was replaced with fresh growth medium and Peptide A was added. After 5-hr incubation with Peptide A, the medium was aspirated and 100 μL diluted Steady Glo was added. The plates were gently shake at room temperature for 30 minutes and luminescence determined by TopCount at the SPC mode.
For orientation: A reporter such as luciferase makes a cellular process visible.

The conditions of test [6]: injections of the peptide; cited from earlier work.
Test [7] deals with T1, nGPCR-51. The test is described as follows: Intracellular calcium measurement using FLIPR, nGPCR-51-transfected HEK293 cells. As to conditions: fluo-4, FLIPR, read-out: EC50, calcium mobilization. It is filed as cell-based. Here is the method:
(§1) HEK293 cells were transiently transfected with an expression vector for nGPCR-51 and empty vector using Lipofectamine plus (Gibco) according to the manufacturer's instructions. The next day, the cells were seeded into 96-well plates at 25,000 cells per well. The following day, cells were loaded with 1 uM Fluo-4-acetoxymethyl fluorescent indicator dye (Molecular Probes) in MEM (minimal essential media) containing 0.1% bovine serum albumin, 0.04% pluronic acid and 2.5 mM probenecid for 30 minutes at 37 C. The cells were washed with pre-warmed (37 C.) assay buffer (Hanks buffer containing 15 mM HEPES, 2.5 mM probenecid and 0.1% bovine serum albumin). Assay buffer (100 ul) was added to each well and plates were incubated at 37 C. for 15 minutes. Various concentrations (0.03 pM-10 nM) of human Peptide A or salmon Peptide B were added and fluorescence produced by fluo-4 (a calcium sensitive dye) was measured every second for 150 seconds on a fluorometric imaging plate reader (FLIPR1; Molecular Devices). Human Peptide A and salmon Peptide B-induced calcium mobilization in nGPCR-51-transfected cells with EC50 values of 3 nM and 6 nM, respectively. Human Peptide A and salmon Peptide B had no effect on vector-transfected cells.
(In general: A change in cytosolic calcium serves as a functional read-out for many receptors and channels.)

The subject of another test is vector-transfected cells. The test is described as follows: Intracellular calcium measurement using FLIPR, empty vector control HEK293 cells. It counts as cell-based, human. Particulars: 0.03 pM-10 nM. Here is the method: as §1
For test [8] the following is noted: intracerebroventricular injection; cited from earlier work.
The conditions of test [9]: central injections in rats; cited from earlier work.
A further test relates to Untransfected cells. The test is described as follows: Radioligand binding assay, untransfected cells.
For test [10], the target named is T1, nGPCR-51. As to the kind of experiment: Radioligand saturation binding assay, membranes of cells transiently expressing nGPCR-51. The protocol:
HEK 293 or COS 7 cells transiently expressing nGPCR-51, or CHO K-I cells stable expressing nGPCR-51, were grown to sub-confluence (2 days post-transfection for transients), harvested from flasks in Dulbecco's PBS and pelleted by low speed centrifugation (2500 rpm) for 10 minutes. Cell pellets were homogenized in 10 ml tissue buffer (50 mM Hepes, 10 mM MgCl2, 2 mM EGTA, 1 μg/ml aprotinin, 1 μg/ml leupeptin hemisulfate, 1 μg/ml pepstatin A, pH 7.0) using a dounce, 10 strokes. Homogenate was centrifuged at 47,000× g for 15 minutes. Membrane pellet was resuspended in 1 ml tissue buffer using the dounce, 10 strokes. An aliquot of the membrane preparation was used to determine protein concentration. For measurement of saturation binding, 10 μg of cell membranes were incubated with various concentrations of [^125I] Peptide A (iodinated by routine procedures via the Tyr residue) in 300 μl binding assay buffer (tissue buffer plus 0.15 mM Bacitracin and 0.1% ovalbumin) for 90 minutes at room temperature in 96-well plates. Non-specific binding was defined by the inclusion of 1 μM Peptide A. After the binding incubation, plates were harvested onto GF/C filters presoaked in 0.3% non-fat dry milk. […] Filter plates were then counted in a Packard Topcount™ 96-well microplate scintillation counter. Data were analyzed using GraphPad Prism (San Diego, Calif.) and Kd and Bmax values were calculated.

pEC50: −log10 of the molar value. Values joined by “and” are separate entries in the source; they are usually repeats but may differ in a detail not shown here. Equal entries are not always repeated.

T1 sequence (Q969V1 whole entry): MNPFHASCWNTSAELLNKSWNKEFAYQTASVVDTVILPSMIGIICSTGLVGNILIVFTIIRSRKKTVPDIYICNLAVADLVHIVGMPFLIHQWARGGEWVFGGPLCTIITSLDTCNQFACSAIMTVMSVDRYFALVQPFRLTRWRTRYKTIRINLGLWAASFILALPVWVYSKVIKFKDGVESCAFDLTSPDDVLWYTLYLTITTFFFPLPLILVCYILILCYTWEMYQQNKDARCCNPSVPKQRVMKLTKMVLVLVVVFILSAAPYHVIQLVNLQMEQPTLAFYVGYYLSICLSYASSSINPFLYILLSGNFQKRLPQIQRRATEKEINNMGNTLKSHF

As for `CSCC[C@@H]1NC(=O)[C@@H](NC(=O)[C@H](CCCNC(=N)N)NC(=O)[C@H](CC(C)C)NC(=O)[C@H](CCSC)NC(=O)[C@H](CC(=O)O)NC(=O)[C@H](Cc2ccccc2)NC(=O)[C@@H](N)CC(=O)O)CSSC[C@@H](C(=O)N[C@@H](Cc2c[nH]c3ccccc23)C(=O)N[C@@H](CCC(N)=O)C(=O)N[C@H](C(=O)O)C(C)C)NC(=O)[C@@H]2CCCN2C(=O)[C@H](CCCNC(=N)N)NC(=O)[C@H](Cc2ccc(O)cc2)NC(=O)[C@H](C(C)C)NC(=O)[C@H](CCCNC(=N)N)NC(=O)CNC(=O)[C@H](CC(C)C)NC1=O` [Peptide A, Asp Phe Asp Met Leu Arg Cys Met Leu Gly Arg Val Tyr Arg Pro Cys Trp Gln Val], the passive avoidance performance result in test [1] is “alter passive avoidance performance”. In the test on SLC-1 gene product, the “activation of SLC-1 G-protein coupled receptor” value was “potently activated”. In addition, the food intake result in test [2] is reported as “increase in food intake”. On nGPCR-51 [3], the pEC50 was around 7.40 and the “maximum response, aequorin luminescence” value was found to be 52 fold over baseline. In addition, the “time spent in open arms, elevated plus maze” value in test [4] is “decreases in time spent in open arms”. For the same compound, the pEC50 on nGPCR-51 [5] was 8.80 and 8.77. In addition, the female sexual receptivity entry in test [6] is “stimulated female sexual receptivity”. Further, on nGPCR-51 [7], the pEC50 is 8.52. In addition, in the test on vector-transfected cells, the “effect on calcium mobilization in vector-transfected cells” value is reported as “no effect”. In addition, in [8], the “conditioning amplitude of the second of a pair of auditory evoked potentials recorded from the hippocampus” value is given as “decrease in the conditioning amplitude” and the “effect on increases in the conditioning amplitude induced by alpha MSH” value is listed as “reverses the increases in the conditioning amplitude”. For the same compound, in test [9], the “peak circadian ACTH levels” value was “reduction in peak circadian ACTH levels” and the “stress-induced ACTH secretion” value was “inhibit stress-induced ACTH secretion”.
With `CSCC[C@@H]1NC(=O)[C@@H](NC(=O)[C@H](CCCNC(=N)N)NC(=O)[C@H](CC(C)C)NC(=O)[C@H](CCSC)NC(=O)[C@H](CC(=O)O)NC(=O)[C@H](Cc2ccccc2)NC(=O)[C@@H](N)CC(=O)O)CSSC[C@@H](C(=O)N[C@@H](Cc2c[nH]c3ccccc23)C(=O)N[C@@H](CCC(N)=O)C(=O)N[C@H](C(=O)O)C(C)C)NC(=O)[C@@H]2CCCN2C(=O)[C@H](CCCNC(=N)N)NC(=O)[C@H](Cc2ccc(O)c(I)c2)NC(=O)[C@H](C(C)C)NC(=O)[C@H](CCCNC(=N)N)NC(=O)CNC(=O)[C@H](CC(C)C)NC1=O` [[^125I] Peptide A], in the test with Untransfected cells, the specific radioligand binding result is listed as “no specific radioligand binding”. Moreover, the Bmax at nGPCR-51 [10] (COS 7 cells transiently expressing nGPCR-51) is given as 75 finol/mg. For the same compound, the “estimated Bmax” value on nGPCR-51 [10] (HEK 293 cells transiently expressing nGPCR-51) is recorded as around 108 fmol/mg.

The values above are taken from patent publication US20030003451A1, “Novel G protein-coupled receptors” (priority 2000, published 2003).
